Reference: US6693083B2, “Conjugates targeted to the interleukin-2 receptor” (Watson Pharmaceuticals, Inc., priority 1997, dated 2004)
“Also recorded” adds a separate entry of the source. Like-named read-outs stand apart in the source and are kept apart here. Where no end group is shown, it is not given here. PEG = not defined here; ADR = adriamycin

Assays:
mouse CTLL-2 cells = test: In vitro cytotoxic activity against mouse CTLL-2 cells (MTS cell viability assay)
Method: CTLL-2 cells express the IL-2 high affinity receptor. […] Thereafter, cell viability was assessed by a colorimetric method using the tetrazolium compound MTS (3-(4,5-dimethylthiazol-2-yl)-5-(3-carboxymethoxyphenyl)-2-(4-sulfophenyl)-2H-tetrazolium, inner salt) and an electron coupling reagent, PMS (phenazine methosulfate). A. J. Cory et al., 3 Cancer Commun. […] MTS is bioreduced by living cells into a soluble formazan product. The absorbence of the formazan at 490 nm can be measured directly from 96 well assay plates without additional processing. The quantity of formazan product as measured by the absorbence at 490 nm is directly proportional to the number of living cells in culture. Reagents for the MTS assay were obtained from Promega Corp. (Madison, Wis.). […] The plate was then further incubated at 37° C. in a humidified, 5% CO2 atmosphere for 4 hours. The absorbence of each well was then measured at 490 nm with an EL311 Microplate Autoreader (Bio-Tek Instruments). The mean absorbence for each treatment was then calculated, and the percent cytotoxicity was determined using the formula: [formula]
wherein AS represents the mean absorbence for each treatment and AC represents mean absorbence of the control treatment, i.e. cells not exposed to a conjugate.

B10.RIII mice = test: Treatment of collagen-induced arthritis (CIA) in B10.RIII mice; conditions: 2 mg/kg i.p.; for weight loss: alternate day treatment, observed for 84 days, PBS control about 5%±5%
Method: B10.RIII mice were injected with CII (200 μg) emulsified with complete Freund's adjuvant (CFA; 200 μg H37Ra). At day 21, mice were boosted with 100 μg of CII, randomized for CIA severity (13/group), and an alternate day treatment protocol was begun.

[1] = system: IL-2-induced proliferation of murine splenocytes; test: Inhibition of IL-2-induced proliferation of murine splenocytes (trypan blue viable cell count); assay type: cell-based, mouse; conditions: for specific binding to the IL-2 receptor: concluded from inhibition of IL-2-induced proliferation (Example 20)
Method: The in vitro effects of IL-2-receptor-targeted conjugates on IL-2-induced proliferation of murine splenocytes was examined.
A sterile splenocyte suspension was prepared as follows. Spleens were aseptically removed from male C57 BL/6 mice and placed in sterile tissue culture medium (RPMI plus 10% fetal calf serum). The spleens were teased apart and gently aspirated using a Pasteur pipet. The resulting spleen cell suspension was then filtered through sterile gauze and centrifuged at 150×g for 10 minutes at 20° C. […] After 30 seconds, an equal volume of tissue culture medium was added to the suspension to restore isotonicity. The cell suspension was again centrifuged at 150×g for 10 minutes at 20° C., and the resulting cell pellet was washed once using tissue culture medium. The washed cell pellet was finally resuspended in tissue culture medium, and cell density was adjusted to 5×10^6 cells/ml.
To the wells of a 96-well assay plate (Falcon MICROTEST III), 50 μl volumes of the splenocyte suspension were added. Competitor (conjugate) solutions were prepared and diluted in tissue culture medium and added to the wells of the assay plate in 25 μl volumes. To control wells, 25 μl of tissue culture medium was added. […] To the wells of the assay plate, 25 μl of either tissue culture medium or a solution containing recombinant human IL-2 (Pharmingen) at a concentration of 20 ng/ml (in tissue culture medium) was added.
Final results were quantitated as follows. Viable cell counts were performed for each separate well of the assay plate using the trypan blue exclusion method. Trypan blue is taken up and imparts a blue color to dead cells. Briefly, an aliquot of cells was twice diluted in 0.4% trypan blue stain (Sigma Chemical Co., St. Louis, Mo.) and incubated for 5 minutes before counting with a hemacytometer and an inverted microscope. The percentage of viable cells was calculated as the number of unstained cells per unit volume divided by the total number of stained and unstained cells×100. Cell counts for each duplicate set of wells were averaged, and cell proliferation was calculated as percent change from control cells using the following formula: [formula]
Percent inhibition of IL-2 induced proliferation was calculated as follows. [formula]

[2] = 48 hours incubation, MTS assay, compared by adriamycin concentration

Row | Compound | weight loss (B10.RIII mice) | cytotoxicity against CTLL-2 T cells (FIG. 1) (mouse CTLL-2 cells; [2]) | specific binding to the IL-2 receptor [1] | also measured
1 | COc1cccc2c1C(=O)c1c(O)c3c(c(O)c1C2=O)C[C@@](O)(C(=O)CO)C[C@@H]3O[C@H]1C[C@H](N)[C@H](O)[C@H](C)O1 [adriamycin, reference compound] |  |  |  | cytotoxicity against CTLL-2 T cells (FIG. 1) (mouse CTLL-2 cells): rapidly diffuses into the cells and kills them
2 | PEG-Gly-Phe-Leu-Gly-ADR (GFLG; PEG and adriamycin conjugated; OTHER INFORMATION: Synthetic Construct) [PEG-GFLG-ADR, reference compound] | about 10%±8% | much lower than that required for PEG-GFLG-ADR |  | 
3 | PEG-TT23-ADR ({PEG}-TGLNRILLGFLG-{ADR}; reading uncertain) | about 3%±6% | kills such CTLL-2 T cells at concentrations much lower than that required for PEG-GFLG-ADR; also recorded: requires higher concentrations of adriamycin than unconjugated adriamycin | specifically bind to the IL-2 receptor | arthritis severity (cumulative daily arthritis scores) (B10.RIII mice; alternate day treatment from day 21, observed for 84 days, compared to PBS control (P≦0.02)): significantly greater number of mice with only minimum arthritis
4 | PEG-TT23: prepared according to Example 1 except that no adriamycin was conjugated; PEG coupled to peptide TT23 (SEQ ID NO:22) (TGLNRILLGFLG; not fully specified (N-terminus); also: PEG conjugate, attachment site not given here) |  |  | specifically binds to the IL-2 receptor | inhibition of IL-2-induced proliferation of murine splenocytes (FIG. 2) ([1]; recombinant human IL-2, 48 hours, trypan blue exclusion): very effectively inhibits proliferation
5 | TGLNRILLGFLG [peptide TT23] |  |  |  | amount needed to achieve similar levels of inhibition, relative to PEG-TT23 ([1]; IL-2-induced proliferation of murine splenocytes): about 100 fold
